Some results are limits rather than exact numbers.

For this assay, the target named is human CYP2D6 (Homo sapiens, UniProt P10635). Briefly: Cytochrome P450 2D6 inhibition (dextromethorphan O-demethylation, pooled human hepatic microsome).
human CYP2D6, sequence (P10635 whole entry): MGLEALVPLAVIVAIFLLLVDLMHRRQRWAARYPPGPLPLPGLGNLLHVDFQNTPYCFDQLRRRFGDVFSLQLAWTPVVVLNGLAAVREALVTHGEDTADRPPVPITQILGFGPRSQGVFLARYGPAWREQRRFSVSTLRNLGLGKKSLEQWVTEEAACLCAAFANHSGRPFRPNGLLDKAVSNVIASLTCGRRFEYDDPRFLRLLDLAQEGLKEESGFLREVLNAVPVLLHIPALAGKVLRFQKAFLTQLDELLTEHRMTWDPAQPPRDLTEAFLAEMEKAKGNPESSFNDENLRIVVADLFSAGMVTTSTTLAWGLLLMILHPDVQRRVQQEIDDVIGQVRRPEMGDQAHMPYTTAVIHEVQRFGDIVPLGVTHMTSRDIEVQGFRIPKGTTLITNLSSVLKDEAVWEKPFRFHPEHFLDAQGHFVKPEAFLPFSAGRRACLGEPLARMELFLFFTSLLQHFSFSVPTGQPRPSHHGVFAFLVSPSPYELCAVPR
By IC50 is commonly meant the point on the concentration scale where inhibition reaches its midpoint. A lower IC50 goes with inhibition by little substance. `C[C@@H]1C[C@@H]2C[C@H](C1)C[C@@H](N1[C@@H]3CCC[C@H]1C[C@@H](n1c(=O)c(-c4cc(C(=O)O)c[nH]c4=O)nc4ccccc41)C3)C2` [R28a(i), 5-(4-((1R,1′R,3r,3′R,5S,5′S,7S)-7-methyl-[3,9′-bi(9′-azabicyclo[3.3.1]nonan)]-3′-yl)-3-oxo-3,4-dihydroquinoxalin-2-yl)-6-oxo-1,6-dihydropyridine-3-carboxylic acid] registered an IC50 of more than 20 µM. In the case of `C[C@@H]1C[C@@H]2C[C@H](C1)C[C@@H](N1[C@@H]3CCC[C@H]1C[C@@H](n1c(=O)c(-n4ncc(=O)[nH]c4=O)nc4ccccc41)C3)C2` [Compound B34a, 2-(4-((1R,1′R,3r,3′R,5S,5′S,7S)-7-methyl-[3,9′-bi(9′-azabicyclo[3.3.1]nonan)]-3′-yl)-3-oxo-3,4-dihydroquinoxalin-2-yl)-1,2,4-triazine-3,5(2H,4H)-dione], the IC50 was more than 20 µM. As to `CC1(C)[C@H]2CC[C@@H](CCN3[C@@H]4CCC[C@H]3C[C@@H](n3c(=O)c(-c5ccc[nH]c5=O)nc5ccccc53)C4)[C@@H]1C2` [U55a(i), 1-((1R,3S,5S)-9-(2-((1S,2S,5S)-6,6-dimethylbicyclo[3.1.1]heptan-2-yl)ethyl)-9-azabicyclo[3.3.1]nonan-3-yl)-3-(2-oxo-1,2-dihydropyridin-3-yl)quinoxalin-2(1H)-one], the IC50 is more than 20 µM.

`O=C(O)Cn1c(-c2nc3ccccc3n([C@H]3C[C@H]4CC[C@@H](C3)N4[C@@H]3C[C@@H]4CCCC[C@@H](C4)C3)c2=O)cccc1=O` [DD1b(iii), 2-(6-(4-((1R,3R,5S)-8-((1R,6S,8s)-bicyclo[4.3.1]decan-8-yl)-8-azabicyclo[3.2.1]octan-3-yl)-3-oxo-3,4-dihydroquinoxalin-2-yl)-2-oxopyridin-1(2H)-yl)acetic acid] yielded an IC50 of more than 20 µM. Regarding `Nc1nc(=O)n(-c2nc3ccccc3n([C@H]3C[C@H]4CCC[C@@H](C3)N4[C@@H]3C[C@@H]4CCCC[C@@H](C4)C3)c2=O)cc1F` [Compound U067], the IC50 was more than 20 µM. The compound `C[C@@H]1C[C@@H]2C[C@H](C1)C[C@@H](N1[C@@H]3CCC[C@H]1C[C@@H](n1c(=O)c(-c4c[nH]c(=O)cn4)nc4ccccc41)C3)C2` [Compound U052, 1-((1R,1′R,3r,3′R,5S,5′S,7S)-7-methyl-[3,9′-bi(9′-azabicyclo[3.3.1]nonan)]-3′-yl)-3-(5-oxo-4,5-dihydropyrazin-2-yl)quinoxalin-2(1H)-one] gave an IC50 of more than 20 µM. The figure for `Cc1nn(-c2nc3ccccc3n([C@H]3C[C@H]4CCC[C@@H](C3)N4[C@@H]3C[C@@H]4CCCC[C@@H](C4)C3)c2=O)c(=O)[nH]c1=O` [Compound O10b, 2-(4-((1R,3R,5 S)-9-((1R,6S,8s)-bicyclo[4.3.1]decan-8-yl)-9-azabicyclo[3.3.1]nonan-3-yl)-3-oxo-3,4-dihydroquinoxalin-2-yl)-6-methyl-1,2,4-triazine-3,5(2H,4H)-dione] is more than 20 µM; for `CC1(C)NC(=O)N(c2nc3ccccc3n([C@H]3C[C@H]4CCC[C@@H](C3)N4[C@@H]3C[C@@H]4CCCC[C@@H](C4)C3)c2=O)C1=O` [Compound O22b, 3-(4-((1R,3R,5S)-9-((1R,6S,8s)-bicyclo[4.3.1]decan-8-yl)-9-azabicyclo[3.3.1]nonan-3-yl)-3-oxo-3,4-dihydroquinoxalin-2-yl)-5,5-dimethylimidazolidine-2,4-dione] it is more than 20 µM. Compound `O=c1cncc(-c2nc3ccccc3n([C@H]3C[C@H]4CCC[C@@H](C3)N4[C@H]3C[C@@H]4CCC[C@@H](C4)C3)c2=O)[nH]1` [R3a(i), 1-((1R,1′R,3r,3′R,5S,5′S)-[3,9′-bi(9′-azabicyclo[3.3.1]nonan)]-3′-yl)-3-(6-oxo-1,6-dihydropyrazin-2-yl)quinoxalin-2(1H)-one] came in with an IC50 of more than 20 µM. With `O=C(O)Cn1c(-c2nc3ccccc3n([C@H]3C[C@H]4CCC[C@@H](C3)N4[C@@H]3C[C@@H]4CCCC[C@@H](C4)C3)c2=O)cccc1=O` [EE1b(iii), 2-(6-(4-((1R,3R,5S)-9-((1R,6S,8s)-bicyclo[4.3.1]decan-8-yl)-9-azabicyclo[3.3.1]nonan-3-yl)-3-oxo-3,4-dihydroquinoxalin-2-yl)-2-oxopyridin-1(2H)-yl)acetic acid], the IC50 was more than 20 µM. Compound `O=c1cnn(-c2nc3ccccc3n([C@H]3C[C@H]4CC[C@@H](C3)N4[C@@H]3C[C@@H]4CCCC[C@@H](C4)C3)c2=O)c(=O)[nH]1` [Compound N9b, 2-(4-((1R,3R,5S)-8-((1R,6S,8s)-bicyclo[4.3.1]decan-8-yl)-8-azabicyclo[3.2.1]octan-3-yl)-3-oxo-3,4-dihydroquinoxalin-2-yl)-1,2,4-triazine-3,5(2H,4H)-dione] displayed an IC50 of more than 20 µM.

The compound `N[C@H]1CCN(c2nc3ccccc3n(C3CCN(C4CCCCCCC4)CC3)c2=O)C1` [CC39, reference compound] registered an IC50 of less than 1 µM. Consider `C[C@@H]1C[C@@H]2C[C@H](C1)C[C@@H](N1[C@@H]3CCC[C@H]1C[C@@H](n1c(=O)c(-c4c[nH]c(=O)c(C(N)=O)c4)nc4ccccc41)C3)C2` [Compound U063, 5-(4-((1R,1′R,3r,3′R,5S,5′S,7S)-7-methyl-[3,9′-bi(9′-azabicyclo[3.3.1]nonan)]-3′-yl)-3-oxo-3,4-dihydroquinoxalin-2-yl)-2-oxo-1,2-dihydropyridine-3-carboxamide], for which the IC50 came out at 7.2 µM.

In the case of `O=C(O)Cn1c(-c2nc3ccccc3n([C@H]3C[C@H]4CCC[C@@H](C3)N4C3CCCCCCCCC3)c2=O)cccc1=O` [BB1c(iii), 2-(6-(4-((1R,3r,5S)-9-cyclodecyl-9-azabicyclo[3.3.1]nonan-3-yl)-3-oxo-3,4-dihydroquinoxalin-2-yl)-2-oxopyridin-1(2H)-yl)acetic acid], the IC50 was more than 20 µM. `Nc1nc(=O)n(-c2nc3ccccc3n([C@H]3C[C@H]4CCC[C@@H](C3)N4[C@H]3C[C@@H]4CCC[C@@H](C4)C3)c2=O)cc1F` [B7a(i), 1-((1R,1′R,3r,3′R,5S,5′S)-[3,9′-bi(9′-azabicyclo[3.3.1]nonan)]-3′-yl)-3-(4-amino-5-fluoro-2-oxopyrimidin-1(2H)-yl)quinoxalin-2(1H)-one] had a 50% inhibitory concentration (IC50) of more than 20 µM. For `O=c1[nH]nc(-c2nc3ccccc3n([C@H]3C[C@H]4CCC[C@@H](C3)N4[C@@H]3C[C@@H]4CCCC[C@@H](C4)C3)c2=O)[nH]1` [EE6b(i)(i), 1-((1R,3R,5S)-9-((1R,6S,8s)-bicyclo[4.3.1]decan-8-yl)-9-azabicyclo[3.3.1]nonan-3-yl)-3-(5-oxo-4,5-dihydro-1H-1,2,4-triazol-3-yl)quinoxalin-2(1H)-one], the IC50 was more than 20 µM. Consider `O=C1CN(c2nc3ccccc3n(C3CCN(C4CCCCCCC4)CC3)c2=O)CCN1` [CC18, reference compound], for which the IC50 was less than 1 µM. Consider `O=c1c(N2CCNCC2)nc2ccccc2n1C1CCN(C2CCCCCCC2)CC1` [CC10, reference compound], for which the IC50 is less than 1 µM. `O=c1[nH]c(=O)n(-c2nc3ccccc3n([C@H]3C[C@H]4CCC[C@@H](C3)N4[C@H]3C[C@@H]4CCC[C@@H](C4)C3)c2=O)cc1Br` [Compound B16a, 1-(4-((1R,1′R,3r,3R,5S,5′S)-[3,9′-bi(9′-azabicyclo[3.3.1]nonan)]-3′-yl)-3-oxo-3,4-dihydroquinoxalin-2-yl)-5-bromopyrimidine-2,4(1H,3H)-dione] registered an IC50 of more than 20 µM.

In turn, `O=C(O)Cn1c(-c2nc3ccccc3n([C@H]3C[C@H]4CC[C@@H](C3)N4[C@H]3C[C@@H]4CCC[C@@H](C4)C3)c2=O)cccc1=O` [Q1a(iii), 2-(6-(4-((1R,3R,5S)-8-((1R,3r,5S)-bicyclo[3.3.1]nonan-3-yl)-8-azabicyclo[3.2.1]octan-3-yl)-3-oxo-3,4-dihydroquinoxalin-2-yl)-2-oxopyridin-1(2H)-yl)acetic acid] showed an IC50 of more than 20 µM. As to `Cc1cc(=O)[nH]c(=O)n1-c1nc2ccccc2n([C@H]2C[C@H]3CCC[C@@H](C2)N3[C@H]2C[C@@H]3CCC[C@@H](C3)C2)c1=O` [Compound U065, 1-(4-((1R,1R,3r,3′R,5S,5′S)-[3,9′-bi(9′-azabicyclo[3.3.1]nonan)]-3′-yl)-3-oxo-3,4-dihydroquinoxalin-2-yl)-6-methylpyrimidine-2,4(1H,3H)-dione], the concentration for half-maximal inhibition (IC50) was more than 20 µM.

In the case of `O=C(O)Cn1cc(-c2nc3ccccc3n([C@H]3C[C@H]4CCC[C@@H](C3)N4[C@H]3C[C@@H]4CCC[C@@H](C4)C3)c2=O)ccc1=O` [Compound U007, 2-(5-(4-((1R,1′R,3r,3′R,5S,5′S)-[3,9′-bi(9′-azabicyclo[3.3.1]nonan)]-3′-yl)-3-oxo-3,4-dihydroquinoxalin-2-yl)-2-oxopyridin-1(2H)-yl)acetic acid], the IC50 is more than 20 µM.

On to `C[C@@H]1C[C@@H]2C[C@H](C1)C[C@@H](N1[C@@H]3CCC[C@H]1C[C@@H](n1c(=O)c(-c4c[nH]c(=O)c(C(=O)O)c4)nc4ccccc41)C3)C2` [Compound U064, 5-(4-((1R,1′R,3r,3′R,5S,5′S,7S)-7-methyl-[3,9′-bi(9′-azabicyclo[3.3.1]nonan)]-3′-yl)-3-oxo-3,4-dihydroquinoxalin-2-yl)-2-oxo-1,2-dihydropyridine-3-carboxylic acid], for which the IC50 was more than 20 µM. With `C[C@@H]1C[C@@H]2C[C@H](C1)C[C@@H](N1[C@@H]3CCC[C@H]1C[C@@H](n1c(=O)c(-c4ccc(=O)[nH]c4)nc4ccccc41)C3)C2` [Compound U060, 1-((1R,1′R,3r,3′R,5S,5′S,7S)-7-methyl-[3,9′-bi(9′-azabicyclo[3.3.1]nonan)]-3′-yl)-3-(6-oxo-1,6-dihydropyridin-3-yl)quinoxalin-2(1H)-one], the IC50 was more than 20 µM. `O=C(O)Cn1cccc(-c2nc3ccccc3n([C@H]3C[C@H]4CCC[C@@H](C3)N4[C@H]3C[C@@H]4CCC[C@@H](C4)C3)c2=O)c1=O` [R15a(iii), 2-(3-(4-((1R,1′R,3r,3′R,5S,5′S)-[3,9′-bi(9′-azabicyclo[3.3.1]nonan)]-3′-yl)-3-oxo-3,4-dihydroquinoxalin-2-yl)-2-oxopyridin-1(2H)-yl)acetic acid]: the IC50 is more than 20 µM. In turn, `N[C@@H]1CCN(c2nc3ccccc3n([C@H]3C[C@H]4CC[C@@H](C3)N4C3CCCCCCC3)c2=O)C1` [CC101, reference compound] showed an IC50 of less than 1 µM.

The compound `O=C(O)CN1CCN(c2nc3ccccc3n([C@H]3C[C@H]4CC[C@@H](C3)N4C3CCCCCCC3)c2=O)CC1` [CC337, reference compound] yielded an IC50 of 13 µM.

These data come from US9085561B2, “Cyclic urea- or lactam-substituted quinoxaline-type piperidines as ORL-1 modulators” (priority 2012, dated 2015).
